From patent US10800791B2, “Triazole ACC inhibitors and uses thereof” (Gilead Apollo, LLC, priority 2015, dated 2020)
Values after ≈ are worked out from the molar mass of the structure shown. Like-named read-outs stand apart in the source and are kept apart here.

Columns and labels:
Botrtyis cinerea (Bc) = assay: Growth inhibition assay of fungal pathogens, Bc; type: cell-based; settings: 48 h
Procedure, shortened: (§1)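 Pathogen growth in 17% V8 broth is measured by OD600 at 24 and 48 hours, after blank subtraction, in the presence of compound at 50, 10 and 2 ppm or 2, 0.4 and 0.08 ppm. Inhibition in percent comes from 48-hour readings against the DMSO control.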

Diplodia maydis (Dm) = assay: Growth inhibition assay of fungal pathogens, Dm; type: cell-based; settings: Stenocarpella maydis, 48 h
Procedure, shortened: as §1

C. albicans = assay: Antifungal Activity Assay (broth microtiter MIC), C. albicans; type: cell-based, Candida albicans; settings: Candida albicans, ATCC90028, 48 h
Procedure, shortened: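 CLSI M27-A3 broth microdilution in RPMI 1640+MOPS, final inoculum 2.5×10^3 CFU/mL from overnight Sabouraud cultures grown at 35 °C. MIC read visually at 48 h against growth control.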

[1] = read-out: Concentration at 90% Inhibition Bc, Botrtyis cinerea, growth inhibition at 48 hours vs 2% DMSO control
[2] = read-out: Concentration at 90% Inhibition Bc, Botrtyis cinerea, growth inhibition vs 2% DMSO control at 48 hours
[3] = read-out: Concentration at 90% Inhibition Dm, Diplodia maydis, growth inhibition at 48 hours vs 2% DMSO control
[4] = read-out: Concentration at 90% Inhibition Dm, Diplodia maydis, growth inhibition vs 2% DMSO control at 48 hours
[5] = read-out: MIC, C. albicans ATCC 90028, Table 3a, 3 replicates, MIC recorded at 48 h
[6] = read-out: MIC, C. albicans ATCC 90028, Table 3b (additional results), 3 replicates, MIC recorded at 48 h
[7] = Botrtyis cinerea, growth inhibition at 48 hours vs 2% DMSO control, read-out: Concentration at 90% Inhibition Bc
[8] = Botrtyis cinerea, growth inhibition vs 2% DMSO control at 48 hours, read-out: Concentration at 90% Inhibition Bc
[9] = Diplodia maydis, growth inhibition at 48 hours vs 2% DMSO control, read-out: Concentration at 90% Inhibition Dm
[10] = Diplodia maydis, growth inhibition vs 2% DMSO control at 48 hours, read-out: Concentration at 90% Inhibition Dm
[11] = Table 3a, ATCC 90028, 3 replicates, MIC recorded at 48 h, read-out: MIC, C. albicans ATCC 90028
[12] = Table 3b (additional results), ATCC 90028, 3 replicates, MIC recorded at 48 h, read-out: MIC, C. albicans ATCC 90028

| SMILES | IC90 (Botrtyis cinerea (Bc); [1]) | IC90 (Botrtyis cinerea (Bc); [2]) | IC90 (Diplodia maydis (Dm); [3]) | IC90 (Diplodia maydis (Dm); [4]) | MIC (C. albicans; [5]) | MIC (C. albicans; [6]) | IC90 (Botrtyis cinerea (Bc); [7]) | IC90 (Botrtyis cinerea (Bc); [8]) | IC90 (Diplodia maydis (Dm); [9]) | IC90 (Diplodia maydis (Dm); [10]) | MIC (C. albicans; [11]) | MIC (C. albicans; [12]) |
| --- | --- | --- | --- | --- | --- | --- | --- | --- | --- | --- | --- | --- |
| COc1ccc(F)cc1[C@H](Cn1c(=O)n(C(C)(C)C(=O)NC2CCCCC2)c(=O)c2c(C)c(-n3nccn3)sc21)OC1CCOCC1 [Compound I-28, (R)—N-cyclohexyl-2-(1-(2-(5-fluoro-2-methoxyphenyl)-2-((tetrahydro-2H-pyran-4-yl)oxy)ethyl)-5-methyl-2,4-dioxo-6-(2H-1,2,3-triazol-2-yl)-1,4-dihydrothieno[2,3-d]pyrimidin-3(2H)-yl)-2-methylpropanamide] | 0.4 mg/L (≈ 0.598 µM) | 0.4 mg/L (≈ 0.598 µM) | 0.4 mg/L (≈ 0.598 µM) | 0.4 mg/L (≈ 0.598 µM) | 0.25 to 1 mg/L (≈ 0.374 to 1.5 µM) | 0.25 to 1 mg/L (≈ 0.374 to 1.5 µM) | – | – | – | – | – | – |
| COc1ccc(F)cc1[C@H](Cn1c(=O)n(C(C)(C)C(=O)NC2CCC2)c(=O)c2c(C)c(-n3nccn3)sc21)OC1CCOCC1 [Compound I-27, (R)—N-cyclobutyl-2-(1-(2-(5-fluoro-2-methoxyphenyl)-2-((tetrahydro-2H-pyran-4-yl)oxy)ethyl)-5-methyl-2,4-dioxo-6-(2H-1,2,3-triazol-2-yl)-1,4-dihydrothieno[2,3-d]pyrimidin-3(2H)-yl)-2-methylpropanamide] | – | – | – | – | – | – | 0.4 mg/L (≈ 0.624 µM) | 0.4 mg/L (≈ 0.624 µM) | 0.4 mg/L (≈ 0.624 µM) | 0.4 mg/L (≈ 0.624 µM) | 0.25 to 1 mg/L (≈ 0.39 to 1.56 µM) | 0.25 to 1 mg/L (≈ 0.39 to 1.56 µM) |
| CCO[C@@H](Cn1c(=O)n(C(C)(C)C(=O)N2CCCC2)c(=O)c2c(C)c(-n3nccn3)sc21)c1cc(F)ccc1OC [Compound I-42, (R)-1-(2-ethoxy-2-(5-fluoro-2-methoxyphenyl)ethyl)-5-methyl-3-(2-methyl-1-oxo-1-(pyrrolidin-1-yl)propan-2-yl)-6-(2H-1,2,3-triazol-2-yl)thieno[2,3-d]pyrimidine-2,4(1H,3H)-dione] | – | – | – | – | – | – | 0.4 mg/L (≈ 0.684 µM) | 0.4 mg/L (≈ 0.684 µM) | 0.4 mg/L (≈ 0.684 µM) | 0.4 mg/L (≈ 0.684 µM) | 1.1 to 2 mg/L (≈ 1.88 to 3.42 µM) | 2.01 to 4 mg/L (≈ 3.44 to 6.84 µM) |
| COc1ccc(F)cc1[C@H](Cn1c(=O)n(C(C)(C)C(=O)N2CCCC2)c(=O)c2c(C)c(-n3nccn3)sc21)OC(C)C [Compound I-7, (R)-1-(2-(5-fluoro-2-methoxyphenyl)-2-isopropoxyethyl)-5-methyl-3-(2-methyl-1-oxo-1-(pyrrolidin-1-yl)propan-2-yl)-6-(2H-1,2,3-triazol-2-yl)thieno[2,3-d]pyrimidine-2,4(1H,3H)-dione] | – | – | – | – | – | – | 0.4 mg/L (≈ 0.668 µM) | 0.4 mg/L (≈ 0.668 µM) | 0.08 mg/L (≈ 0.134 µM) | 0.08 mg/L (≈ 0.134 µM) | 1.1 to 2 mg/L (≈ 1.84 to 3.34 µM) | 0.25 to 1 mg/L (≈ 0.418 to 1.67 µM) |
| COCCO[C@@H](Cn1c(=O)n(C(C)C(=O)N2CCCC2)c(=O)c2c(C)c(-n3nccn3)sc21)c1cc(F)ccc1OC (stereo partly drawn) [Compound I-64, 1-((R)-2-(5-fluoro-2-methoxyphenyl)-2-(2-methoxy-ethoxy)ethyl)-5-methyl-3-(1-oxo-1-(pyrrolidin-1-yl)propan-2-yl)-6-(2H-1,2,3-triazol-2-yl)thieno[2,3-d]pyrimidine-2,4(1H,3H)-dione] | – | – | – | – | – | – | 2 mg/L (≈ 3.33 µM) | 2 mg/L (≈ 3.33 µM) | 10 mg/L (≈ 16.6 µM) | > 50 mg/L | 2.1 to 4 mg/L (≈ 3.5 to 6.66 µM) | 2.01 to 4 mg/L (≈ 3.35 to 6.66 µM) |
| COc1ccc(F)cc1[C@H](Cn1c(=O)n(C(C)(C)C(=O)N2CCCC2)c(=O)c2c(C)c(-n3nccn3)sc21)OCCN(C)C [Compound I-75, (R)-1-(2-(2-(dimethylamino)ethoxy)-2-(5-fluoro-2-methoxyphenyl)ethyl)-5-methyl-3-(2-methyl-1-oxo-1-(pyrrolidin-1-yl)propan-2-yl)-6-(2H-1,2,3-triazol-2-yl)thieno[2,3-d]pyrimidine-2,4(1H,3H)-dione] | – | – | – | – | – | – | > 50 mg/L | > 50 mg/L | > 50 mg/L | > 50 mg/L | 2.1 to 4 mg/L (≈ 3.35 to 6.37 µM) | 2.01 to 4 mg/L (≈ 3.2 to 6.37 µM) |
| COc1ccc(F)cc1[C@H](Cn1c(=O)n(C(C)(C)C(=O)NC(C)C)c(=O)c2c(C)c(-n3nccn3)sc21)OCCN(C)C [Compound I-76, (R)-2-(1-(2-(2-(dimethylamino)ethoxy)-2-(5-fluoro-2-methoxyphenyl)ethyl)-5-methyl-2,4-dioxo-6-(2H-1,2,3-triazol-2-yl)-1,4-dihydro-thieno[2,3-d]pyrimidin-3(2H)-yl)-N-isopropyl-2-methylpropanamide] | > 50 mg/L | > 50 mg/L | > 50 mg/L | > 50 mg/L | 2.1 to 4 mg/L (≈ 3.41 to 6.5 µM) | 1.01 to 2 mg/L (≈ 1.64 to 3.25 µM) | – | – | – | – | – | – |
| COc1ccc(F)cc1[C@H](Cn1c(=O)n(C(C)(C)C(=O)N2CC=CC2)c(=O)c2c(C)c(-n3nccn3)sc21)OC(C)C [Compound I-51, (R)-3-(1-(2,5-dihydro-1H-pyrrol-1-yl)-2-methyl-1-oxopropan-2-yl)-1-(2-(5-fluoro-2-methoxyphenyl)-2-isopropoxyethyl)-5-methyl-6-(2H-1,2,3-triazol-2-yl)thieno[2,3-d]pyrimidine-2,4(1H,3H)-dione] | – | – | – | – | – | – | 0.4 mg/L (≈ 0.67 µM) | 0.4 mg/L (≈ 0.67 µM) | 0.08 mg/L (≈ 0.134 µM) | 0.08 mg/L (≈ 0.134 µM) | 0.25 to 1 mg/L (≈ 0.419 to 1.68 µM) | 1.01 to 2 mg/L (≈ 1.69 to 3.35 µM) |
| COc1ccc(F)cc1[C@H](Cn1c(=O)n(C(C)(C)C(=O)N2CCCCC2)c(=O)c2c(C)c(-n3nccn3)sc21)OCC(C)C [Compound I-11, (R)-1-(2-(5-fluoro-2-methoxyphenyl)-2-isobutoxyethyl)-5-methyl-3-(2-methyl-1-oxo-1-(piperidin-1-yl)propan-2-yl)-6-(2H-1,2,3-triazol-2-yl)thieno[2,3-d]pyrimidine-2,4(1H,3H)-dione] | 0.4 mg/L (≈ 0.638 µM) | 0.4 mg/L (≈ 0.638 µM) | 0.4 mg/L (≈ 0.638 µM) | 0.4 mg/L (≈ 0.638 µM) | 1.1 to 2 mg/L (≈ 1.76 to 3.19 µM) | 0.25 to 1 mg/L (≈ 0.399 to 1.6 µM) | – | – | – | – | – | – |
| COc1ccc(F)cc1[C@H](Cn1c(=O)n(C(C)(C)C(=O)NC2CC2)c(=O)c2c(C)c(-n3nccn3)sc21)OC(C)C [Compound I-73, (R)—N-cyclopropyl-2-(1-(2-(5-fluoro-2-methoxyphenyl)-2-isopropoxyethyl)-5-methyl-2,4-dioxo-6-(2H-1,2,3-triazol-2-yl)-1,4-dihydrothieno[2,3-d]pyrimidin-3(2H)-yl)-2-methylpropanamide] | – | – | – | – | – | – | 2 mg/L (≈ 3.42 µM) | 2 mg/L (≈ 3.42 µM) | 2 mg/L (≈ 3.42 µM) | 2 mg/L (≈ 3.42 µM) | 0.25 to 1 mg/L (≈ 0.428 to 1.71 µM) | 0.25 to 1 mg/L (≈ 0.428 to 1.71 µM) |
| COCCCO[C@@H](Cn1c(=O)n(C(C)(C)C(=O)NC(C)C)c(=O)c2c(C)c(-n3nccn3)sc21)c1cc(F)ccc1OC [Compound I-69, (R)-2-(1-(2-(5-fluoro-2-methoxyphenyl)-2-(3-methoxy-propoxy)ethyl)-5-methyl-2,4-dioxo-6-(2H-1,2,3-triazol-2-yl)-1,4-dihydrothieno[2,3-d]pyrimidin-3(2H)-yl)-N-isopropyl-2-methylpropanamide] | 0.4 mg/L (≈ 0.649 µM) | 0.4 mg/L (≈ 0.649 µM) | 0.08 mg/L (≈ 0.13 µM) | 0.08 mg/L (≈ 0.13 µM) | – | 1.01 to 2 mg/L (≈ 1.64 to 3.24 µM) | – | – | – | – | – | – |
| COc1ccc(F)cc1[C@H](Cn1c(=O)n(C(C)(C)C(=O)NC(C)C)c(=O)c2c(C)c(-n3nccn3)sc21)OC[C@H](C)O [Compound I-47, 2-(1-((R)-2-(5-fluoro-2-methoxyphenyl)-2-((S)-2-hydroxypropoxy)ethyl)-5-methyl-2,4-dioxo-6-(2H-1,2,3-triazol-2-yl)-1,4-dihydro-thieno[2,3-d]pyrimidin-3(2H)-yl)-N-isopropyl-2-methylpropanamide] | 0.4 mg/L (≈ 0.664 µM) | 0.4 mg/L (≈ 0.664 µM) | 0.4 mg/L (≈ 0.664 µM) | 0.4 mg/L (≈ 0.664 µM) | 0.25 to 1 mg/L (≈ 0.415 to 1.66 µM) | 0.25 to 1 mg/L (≈ 0.415 to 1.66 µM) | – | – | – | – | – | – |
| COc1ccc(F)cc1[C@H](Cn1c(=O)n([C@H](C)C(=O)NC(C)C)c(=O)c2c(C)c(-n3nccn3)sc21)OCCO [Compound I-89, (R)-2-(1-((R)-2-(5-fluoro-2-methoxyphenyl)-2-(2-hydroxy-ethoxy)ethyl)-5-methyl-2,4-dioxo-6-(2H-1,2,3-triazol-2-yl)-1,4-dihydrothieno[2,3-d]pyrimidin-3(2H)-yl)-N-isopropylpropanamide] | 0.4 mg/L (≈ 0.696 µM) | 0.4 mg/L (≈ 0.696 µM) | 2 mg/L (≈ 3.48 µM) | 10 mg/L (≈ 17.4 µM) | 2.1 to 4 mg/L (≈ 3.65 to 6.96 µM) | 2.01 to 4 mg/L (≈ 3.5 to 6.96 µM) | – | – | – | – | – | – |
| COc1ccc(F)cc1[C@H](Cn1c(=O)n(C(C)(C)C(=O)N2CC=CC2)c(=O)c2c(C)c(-n3nccn3)sc21)OC[C@@H](C)O [Compound I-63, 3-(1-(2,5-dihydro-1H-pyrrol-1-yl)-2-methyl-1-oxopropan-2-yl)-1-((R)-2-(5-fluoro-2-methoxyphenyl)-2-((R)-2-hydroxypropoxy)ethyl)-5-methyl-6-(2H-1,2,3-triazol-2-yl)thieno[2,3-d]pyrimidine-2,4(1H,3H)-dione] | – | – | – | – | – | – | 2 mg/L (≈ 3.26 µM) | 2 mg/L (≈ 3.26 µM) | 2 mg/L (≈ 3.26 µM) | 2 mg/L (≈ 3.26 µM) | 0.25 to 1 mg/L (≈ 0.408 to 1.63 µM) | 1.01 to 2 mg/L (≈ 1.65 to 3.26 µM) |
